Ten compounds from ChEMBL document CHEMBL2163286, “1,2,3,4-tetrahydroquinoline-based selective human neuronal nitric oxide synthase (nNOS) inhibitors: lead optimization studies resulting in the identification of N-(1-(2-(methylamino)ethyl)-1,2,3,4-tetrahydroquinolin-6-yl)thiophene-2-carboximidamide as a preclinical development candidate” (J Med Chem, 2012) can be followed below.

Where only a bound is given, the exact number is not on record here.

The target of assay [1] is Voltage-gated inwardly rectifying potassium channel KCNH2 (Homo sapiens, UniProt Q12809). Nature of the assay: Inhibition of human ERG expressed in HEK293 cells at -80 mV holding potential assessed as reduction in tail current amplitude by conventional patch clamp assay. Format: cell-based. (In general: Patch clamp records ionic current or voltage across a cell membrane.)

Assay [2] has as its target Nitric oxide synthase, inducible (Homo sapiens, UniProt P35228). In words: Inhibition of human recombinant iNOS expressed in Sf9 cells assessed as reduction in conversion of [3H]L-arginine to [3H]L-citrulline preincubated for 15 mins by radiometric method.
The target of another assay is Nitric oxide synthase 1 (Homo sapiens, UniProt P29475). Nature of the assay: Inhibition of human nNOS expressed in Sf9 cells assessed as reduction in conversion of [3H]L-arginine to [3H]L-citrulline preincubated for 15 mins by radiometric method.
For the next assay, the target named is T1, Nitric oxide synthase 3 (Homo sapiens, UniProt P29474).
T1 sequence (P29474 whole entry): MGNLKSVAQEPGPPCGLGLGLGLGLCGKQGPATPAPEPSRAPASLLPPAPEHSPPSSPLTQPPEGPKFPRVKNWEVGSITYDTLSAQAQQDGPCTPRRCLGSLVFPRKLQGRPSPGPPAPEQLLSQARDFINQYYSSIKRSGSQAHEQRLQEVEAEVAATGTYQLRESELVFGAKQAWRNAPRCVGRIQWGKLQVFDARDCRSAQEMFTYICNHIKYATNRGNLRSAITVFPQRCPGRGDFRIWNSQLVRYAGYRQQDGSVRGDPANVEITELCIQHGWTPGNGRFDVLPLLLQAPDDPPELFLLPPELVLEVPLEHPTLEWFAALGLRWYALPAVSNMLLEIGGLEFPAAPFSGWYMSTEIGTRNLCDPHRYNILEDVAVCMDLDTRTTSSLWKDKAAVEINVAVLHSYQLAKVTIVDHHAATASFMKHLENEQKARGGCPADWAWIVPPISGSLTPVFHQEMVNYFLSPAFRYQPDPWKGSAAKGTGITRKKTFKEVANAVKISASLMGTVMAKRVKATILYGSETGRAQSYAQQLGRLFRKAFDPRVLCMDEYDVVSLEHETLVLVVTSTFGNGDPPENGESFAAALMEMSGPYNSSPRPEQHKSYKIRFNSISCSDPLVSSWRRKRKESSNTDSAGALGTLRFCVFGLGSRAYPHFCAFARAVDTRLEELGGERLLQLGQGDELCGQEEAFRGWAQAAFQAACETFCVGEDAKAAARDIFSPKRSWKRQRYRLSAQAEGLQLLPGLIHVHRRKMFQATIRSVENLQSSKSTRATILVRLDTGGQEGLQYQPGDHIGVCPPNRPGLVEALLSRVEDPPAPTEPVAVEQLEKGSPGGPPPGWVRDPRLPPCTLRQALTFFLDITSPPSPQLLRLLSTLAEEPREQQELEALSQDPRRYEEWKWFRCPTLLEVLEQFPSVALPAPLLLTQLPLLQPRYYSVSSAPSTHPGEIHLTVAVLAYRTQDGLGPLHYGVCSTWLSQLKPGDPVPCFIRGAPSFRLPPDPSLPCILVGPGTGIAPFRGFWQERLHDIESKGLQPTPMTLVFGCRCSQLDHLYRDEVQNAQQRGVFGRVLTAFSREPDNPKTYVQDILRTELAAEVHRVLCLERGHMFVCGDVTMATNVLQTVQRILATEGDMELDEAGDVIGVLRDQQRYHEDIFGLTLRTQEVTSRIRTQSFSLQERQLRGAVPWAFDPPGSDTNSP
In words: Inhibition of human eNOS expressed in Sf9 cells assessed as reduction in conversion of [3H]L-arginine to [3H]L-citrulline preincubated for 15 mins by radiometric method.

Chain of Voltage-gated inwardly rectifying potassium channel KCNH2 (Q12809 whole entry): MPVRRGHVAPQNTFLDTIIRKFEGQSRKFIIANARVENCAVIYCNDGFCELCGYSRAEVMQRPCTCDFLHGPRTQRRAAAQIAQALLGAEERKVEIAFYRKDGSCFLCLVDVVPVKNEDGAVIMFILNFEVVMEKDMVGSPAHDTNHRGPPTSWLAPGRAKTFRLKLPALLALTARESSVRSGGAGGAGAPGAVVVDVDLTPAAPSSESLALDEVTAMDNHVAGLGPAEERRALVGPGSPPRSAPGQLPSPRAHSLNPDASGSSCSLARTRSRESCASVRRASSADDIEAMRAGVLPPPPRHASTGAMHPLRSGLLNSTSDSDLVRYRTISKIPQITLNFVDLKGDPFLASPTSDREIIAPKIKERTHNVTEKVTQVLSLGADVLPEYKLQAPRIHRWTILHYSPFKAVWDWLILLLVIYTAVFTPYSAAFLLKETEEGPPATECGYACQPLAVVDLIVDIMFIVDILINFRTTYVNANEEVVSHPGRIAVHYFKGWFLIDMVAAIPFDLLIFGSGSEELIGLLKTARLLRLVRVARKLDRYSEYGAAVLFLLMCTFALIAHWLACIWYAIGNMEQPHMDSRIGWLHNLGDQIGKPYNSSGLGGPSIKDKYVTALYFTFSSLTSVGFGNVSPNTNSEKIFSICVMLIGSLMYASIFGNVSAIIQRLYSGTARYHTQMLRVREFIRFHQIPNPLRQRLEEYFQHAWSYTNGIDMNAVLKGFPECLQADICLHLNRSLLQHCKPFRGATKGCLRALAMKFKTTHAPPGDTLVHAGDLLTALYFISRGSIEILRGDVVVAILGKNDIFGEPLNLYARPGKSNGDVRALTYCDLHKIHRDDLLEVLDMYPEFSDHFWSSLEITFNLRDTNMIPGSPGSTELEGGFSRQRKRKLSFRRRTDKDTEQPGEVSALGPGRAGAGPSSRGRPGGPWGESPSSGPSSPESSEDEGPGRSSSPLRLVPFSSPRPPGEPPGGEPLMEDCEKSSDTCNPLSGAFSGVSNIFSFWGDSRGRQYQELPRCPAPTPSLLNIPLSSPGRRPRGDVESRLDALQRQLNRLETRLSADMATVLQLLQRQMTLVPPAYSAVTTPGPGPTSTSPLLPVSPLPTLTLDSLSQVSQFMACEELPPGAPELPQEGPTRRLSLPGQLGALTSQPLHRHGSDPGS
Chain of Nitric oxide synthase, inducible (P35228 whole entry): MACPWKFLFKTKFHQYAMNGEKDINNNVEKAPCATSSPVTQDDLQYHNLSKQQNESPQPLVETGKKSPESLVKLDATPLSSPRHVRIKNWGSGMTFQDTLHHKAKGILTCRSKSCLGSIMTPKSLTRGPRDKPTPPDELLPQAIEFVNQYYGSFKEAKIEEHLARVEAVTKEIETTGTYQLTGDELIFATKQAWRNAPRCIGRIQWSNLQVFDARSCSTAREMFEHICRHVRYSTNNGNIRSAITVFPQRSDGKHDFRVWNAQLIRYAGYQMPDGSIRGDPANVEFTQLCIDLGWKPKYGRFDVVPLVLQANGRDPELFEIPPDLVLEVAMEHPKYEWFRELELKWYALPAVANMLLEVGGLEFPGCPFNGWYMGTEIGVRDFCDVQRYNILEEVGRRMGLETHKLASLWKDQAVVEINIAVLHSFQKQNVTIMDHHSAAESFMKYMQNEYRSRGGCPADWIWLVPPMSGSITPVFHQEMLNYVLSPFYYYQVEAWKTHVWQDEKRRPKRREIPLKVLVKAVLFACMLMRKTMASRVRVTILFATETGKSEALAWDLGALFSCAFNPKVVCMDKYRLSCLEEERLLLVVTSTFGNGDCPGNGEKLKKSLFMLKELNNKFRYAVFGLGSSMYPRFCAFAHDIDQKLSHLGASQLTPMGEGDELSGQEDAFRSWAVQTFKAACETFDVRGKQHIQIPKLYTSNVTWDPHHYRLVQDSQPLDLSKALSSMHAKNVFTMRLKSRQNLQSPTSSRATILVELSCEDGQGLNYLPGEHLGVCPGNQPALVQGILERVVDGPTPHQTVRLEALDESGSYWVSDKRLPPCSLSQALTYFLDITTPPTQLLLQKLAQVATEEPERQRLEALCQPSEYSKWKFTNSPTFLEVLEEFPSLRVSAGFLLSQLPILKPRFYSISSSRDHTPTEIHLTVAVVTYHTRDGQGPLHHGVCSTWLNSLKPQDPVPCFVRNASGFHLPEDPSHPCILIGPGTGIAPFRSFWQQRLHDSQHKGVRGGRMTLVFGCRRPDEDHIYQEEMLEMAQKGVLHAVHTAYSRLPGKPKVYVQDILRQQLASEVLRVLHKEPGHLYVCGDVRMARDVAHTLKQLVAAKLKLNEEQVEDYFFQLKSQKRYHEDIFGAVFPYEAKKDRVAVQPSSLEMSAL
Chain of Nitric oxide synthase 1 (P29475 whole entry): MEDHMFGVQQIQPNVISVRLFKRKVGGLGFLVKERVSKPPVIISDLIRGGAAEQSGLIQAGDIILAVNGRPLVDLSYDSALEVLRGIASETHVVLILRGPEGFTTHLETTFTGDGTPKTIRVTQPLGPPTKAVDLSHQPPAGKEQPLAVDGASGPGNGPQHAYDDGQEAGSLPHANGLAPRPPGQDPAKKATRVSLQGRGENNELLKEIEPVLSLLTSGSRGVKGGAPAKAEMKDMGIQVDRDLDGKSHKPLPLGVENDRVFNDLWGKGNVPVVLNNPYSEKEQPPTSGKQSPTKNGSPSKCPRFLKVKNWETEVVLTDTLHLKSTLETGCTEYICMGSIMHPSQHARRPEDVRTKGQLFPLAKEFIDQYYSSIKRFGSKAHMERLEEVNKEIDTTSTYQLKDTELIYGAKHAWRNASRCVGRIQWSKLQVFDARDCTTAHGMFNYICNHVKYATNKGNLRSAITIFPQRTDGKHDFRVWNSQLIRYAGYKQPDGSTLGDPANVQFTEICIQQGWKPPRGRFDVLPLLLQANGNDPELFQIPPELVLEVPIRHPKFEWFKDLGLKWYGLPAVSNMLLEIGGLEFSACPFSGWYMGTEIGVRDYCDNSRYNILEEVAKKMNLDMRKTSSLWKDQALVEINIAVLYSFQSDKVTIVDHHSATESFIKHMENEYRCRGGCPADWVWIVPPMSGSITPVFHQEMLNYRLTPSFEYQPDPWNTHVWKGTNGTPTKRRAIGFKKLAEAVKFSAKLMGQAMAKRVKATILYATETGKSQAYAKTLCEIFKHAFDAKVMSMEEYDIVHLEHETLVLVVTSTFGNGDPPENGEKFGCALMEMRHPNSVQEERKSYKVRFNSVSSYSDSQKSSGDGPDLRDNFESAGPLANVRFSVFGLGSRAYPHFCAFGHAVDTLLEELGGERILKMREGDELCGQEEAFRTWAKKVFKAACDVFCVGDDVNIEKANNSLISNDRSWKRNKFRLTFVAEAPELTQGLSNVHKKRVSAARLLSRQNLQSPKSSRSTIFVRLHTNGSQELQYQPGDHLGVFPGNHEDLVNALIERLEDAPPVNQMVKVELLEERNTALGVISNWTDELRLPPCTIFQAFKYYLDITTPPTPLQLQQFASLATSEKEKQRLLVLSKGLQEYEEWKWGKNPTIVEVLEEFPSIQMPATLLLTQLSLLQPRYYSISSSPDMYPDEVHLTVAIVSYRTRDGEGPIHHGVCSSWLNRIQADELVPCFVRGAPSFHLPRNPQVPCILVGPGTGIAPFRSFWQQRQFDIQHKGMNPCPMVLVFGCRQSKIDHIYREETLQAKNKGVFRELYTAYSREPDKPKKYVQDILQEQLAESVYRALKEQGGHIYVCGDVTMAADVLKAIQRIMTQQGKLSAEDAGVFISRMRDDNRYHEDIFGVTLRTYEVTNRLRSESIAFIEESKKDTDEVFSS

As for `CN1CCC[C@H]1CCN1CCCc2cc(NC(=N)c3cccs3)ccc21`, the IC50 (usually the concentration that inhibits the measured activity by half) in assay [1] amounted to 4.7 µM.
`CC(C)NCCN1CCCc2cc(NC(=N)c3cccs3)ccc21`: the half-inhibitory concentration (IC50) in assay [2] worked out at 89.4 µM; in assay [1], 27.5 µM; on Nitric oxide synthase 1, 0.267 µM.
`CNCCCN1CCCc2cc(NC(=N)c3cccs3)ccc21`: the IC50 in assay [2] is > 100 µM; in assay [1], > 30 µM.
For the compound `CCN(C)CCN1CCCc2cc(NC(=N)c3cccs3)ccc21`, the half-maximal inhibitory concentration (IC50) was > 100 µM in assay [2], 4.5 µM in assay [1] and 0.097 µM on Nitric oxide synthase 1.
As for `CN(CCO)CCN1CCCc2cc(NC(=N)c3cccs3)ccc21`, the IC50 in assay [2] is > 100 µM; on Nitric oxide synthase 1, 0.133 µM.
In the case of `CNCCN1CCCc2cc(NC(=N)c3cccs3)ccc21`, at Nitric oxide synthase 1, the IC50 was 0.176 µM.
As to `N=C(Nc1ccc2c(c1)CCCN2CCCNCCO)c1cccs1`, the IC50 in assay [2] is > 100 µM; in assay [1] it was > 30 µM; on Nitric oxide synthase 3 it was 39.2 µM; on Nitric oxide synthase 1, 0.169 µM.
In the same order, the values of `N=C(Nc1ccc2c(c1)CCCN2CCNCCO)c1cccs1` are 73 µM, > 30 µM, 32.9 µM and 0.115 µM.
`CCNCCN1CCCc2cc(NC(=N)c3cccs3)ccc21`: the IC50 was > 100 µM in assay [2], > 30 µM in assay [1], 46.5 µM on Nitric oxide synthase 3 and 0.139 µM on Nitric oxide synthase 1.
For the compound `N=C(Nc1ccc2c(c1)CCCN2C1CCNC1)c1cccs1` (racemic), the IC50 in assay [1] was > 30 µM.
